Measurements taken from patent US20100204149A1, “USE OF OCTREOTIDE AS A THERAPEUTIC AGENT” (priority 2007, published 2010).

Test system: drug-resistant Mycobacterium tuberculosis
Conditions: 5 micrograms per ml

With `C[C@@H](O)[C@@H]1NC(=O)[C@H](CCCCN)NC(=O)[C@@H](Cc2c[nH]c3ccccc23)NC(=O)[C@H](Cc2ccccc2)NC(=O)[C@@H](NC(=O)[C@H](N)Cc2ccccc2)CSSC[C@@H](C(=O)N[C@H](CO)[C@@H](C)O)NC1=O` [Octreotide, H-D-Phe-Cys-Phe-D-Trp-Lys-Thr-Cys-L-threoninol] the “% inhibition” value was 100.0%.
